# Measured values published in PMC10788856, “Mimicking Nonribosomal Peptides from the Marine Actinomycete Streptomyces sp. H-KF8 Leads to Antimicrobial Peptides” (ACS Infectious Diseases, 2023).
# Numbered stars: 1 amine (or outer) side, 2 acyl side, 3 side chain; on linkers, the order of the positions; unused ones are H or OH. Bridge positions count the residues as written; N and C are the ends. Square brackets hold non-standard residues; d marks the D form. Peptide text beside a SMILES is read from it. Tyr(3-NO2) = N[C@@H](Cc1ccc(O)c([N+](=O)[O-])c1)C(=O)O; Glutaryl = O=C(CCCC(=O)[*:2])[*:1]; Orn = NCCC[C@H](N)C(=O)O
# Tests used:
# S. aureus (ATCC 12600) = assay: Minimum microbicidal concentration (MMC99) assay; type: cell-based; conditions: BHI diluted 1/100, 37 °C, median, n = 3
# Procedure: (§1) The microbicidal activity of the synthetic peptides was assessed against S. aureus (ATCC 12600; American Type Culture Collection, Manassas, VA, USA), Escherichia coli (CCUG 31246; Culture Collection, University of Gothenburg, Sweden), and Candida albicans (ATCC 64549/CCUG31028) using an MMC assay, as described previously by […] et al. (specific details in Supporting Information, pages 10, 11).[28] The assay was performed in BHI diluted 1/100 (BHI100). […] page 11: Table S5. Energy and structural ensembles of synthesized peptides. […] Energy -3887.06 -3620.88 -4968.42 -2163.76 -2646.75 Van der Waals solv. Energy 117.32 91.57 183.20 -88.88 -139.89 Mean RMSD* (Å), mean±SD […] Heavy atoms 1.87 ± 0.33 1.77 ± 0.50 0.98 ± 0.34 0.63 ±0.22 2.88 ±0.62 MMC99 activity including salt stability measurements Antimicrobial activity of L2 and L3 in the presence of NaCl. 1Table S6. Peptide MMC99 (μg/ml) sin NaCl S. aureus E.coli C. albicans (mM) 2[…] 0 50 25 25 85 - - - - - - >200 >200 >200 150 - - - - - - >200 >200 >200 3L 0 12.5 12.5 25 12,5 6.3 6.3 12.5 6.3 12.5 […] 150 >400 >400 (-)2 >400 >400 >400 >200 >200 >200 […] or 150 mM NaCl. L2 and L3 were serially diluted in twofold steps with a starting dilution of 200 μg/ml […] All sample dilutions were run in duplicates (L2) or triplicates (L3). 2 The growth of S. aureus at 24 h in BHI 100 with 85 or 150 mM NaCl was reduced. Minimum microbicidal concentration (MMC), killing 99% of the inoculum. All microorganisms were cultured in brain-heart infusion broth (BHI) overnight on a shaker at 37°C. The cultures were thereafter transferred to fresh BHI broth in volumes constituting 10% of total, and incubated for an additional 2 h to reach exponential growth phase. The bacterial cultures were washed once in BHI diluted 1/100 (BHI100), followed by resuspension in BHI100. The cell suspensions were diluted to a density of […] (bacteria) or 2x10^7 CFU/ml (yeast), as estimated by optical density measurement at 590 nm. […] Serum stability Figure S 133. […] A) peptide L2 B) peptide L3. C) peptide L3-K. D) peptide C3.
# [1] = system: Escherichia coli (CCUG 31246); assay: Minimum microbicidal concentration (MMC99) assay; type: cell-based, E. coli; conditions: BHI diluted 1/100
# Procedure: as §1
# S. aureus = assay: microbe, parasite or virus in culture; type: cell-based; conditions: 16 h
# C. albicans = assay: microbe, parasite or virus in culture; type: cell-based; conditions: 16 h
# [2] = system: hepatoblastoma (HepG2) cells; type: cell-based, human
# Procedure: To confirm the peptide selectivity toward bacteria cells, cytotoxicity assays of synthesized peptides L2, L3, L3-K, and C3 against human embryonic kidney (HEK) and hepatoblastoma (HepG2) were performed (Figure 4). The cell viability was assessed using resazurin 24 h post peptide exposure. The line at 70% cell viability marks out the threshold for cytotoxic potential compared to the negative control.
# Figure 4 Cell viability assessment using the resazurin assay 24 h post peptide exposure: (a) HepG2 and (b) HEK cells were treated with various concentrations of the peptides C3, L3, L3-K, and L2. Triton-X was used as a positive control. Cells cultured in pure cell media were used as negative controls and were considered to have 100% cell viability. The line represents the threshold for cytotoxicity level of 70% of cell viability compared to the negative control. Data are presented as the mean ± SD of three biological replicates of the HepG2 cells and the mean ± SD of two biological replicates of the HEK cells.
# Cytotoxicity against human embryonic kidney (HEK) and hepatoblastoma (HepG2) cell lines was assessed. Cells were grown to an initial seeding density of 10 000 cells per well. Metabolic activity was determined in a resazurin-based assay. HEK and HepG2 cells were exposed to four different concentrations of the peptides for 24 h. Treatment with Triton X-100 at 1% v/v was used as a positive control. Following this exposure period, the cells were treated with resazurin at a final concentration of 0.015 mg/mL for 3 h. The metabolic activity was then determined in an resazurin-based assay. The fluorescence intensities were quantified in a Hidex Sense microplate reader using an excitation wavelength of 544 nm and an emission wavelength of 590 nm.
# E. coli CCUG31246 = assay: DiSC(3)5 microscopy (membrane potential); type: cell-based; conditions: 0.5 μM DiSC(3)5
# Source text: Propidium iodide is a large organic molecule that is not suitable to detect smaller ion-conducting pores or channels induced by antimicrobials. To assess whether the peptides may form smaller membrane pores sufficient for the passage of ions, we tested their effects on the membrane potential using the fluorescence probe DiSC(3)5.[40] This dye accumulates in the cell membrane in a membrane potential-dependent manner and disassociates, when the membrane potential is dissipated. […] This effect can be clearly seen with polymyxin B (Figure 7b).
# The membrane potential of E. coli CCUG31246 and E. coli MC4100 carrying pABCON2-fhuA ΔC/Δ4L was measured by DiSC(3)5 microscopy according to ref. ([40]) with minor modifications. Cells were grown in 1:10 BHI containing 50 μg/mL bovine serum albumin to an OD600 of 0.3 prior to antibiotic treatment with the respective peptides for 10 and 60 min. Samples were stained with 0.5 μM DiSC(3)5 for 15 min (added 5 min before adding antibiotics for the 10 min time point and after 45 min of antibiotic treatment for the 60 min time point). Stained samples were spotted on 1.2% agarose, sealed with a gene frame, and imaged immediately. Microscopy was performed as described above, and fluorescence intensity was analyzed with the same parameters used for propidium iodide detection.
structure (smiles),measurement,setting,value
CC(C)[C@H]1NC(=O)[C@H](CCCN)NC(=O)[C@H]([C@@H](C)O)NC(=O)[C@H](CCCN)NC(=O)[C@H](Cc2c[nH]c3ccccc23)NC(=O)[C@@H](C)NC(=O)[C@@H](C(C)C)NC(=O)[C@@H](C)NC(=O)[C@H](Cc2c[nH]c3ccccc23)NC(=O)CCCC(=O)NCCCC[C@@H](C(N)=O)NC(=O)[C@H](Cc2ccc(O)c([N+](=O)[O-])c2)NC1=O [C3] (W[dA][dV][dA]W[Orn]T[Orn][dV][Tyr(3-NO2)]K-NH2; linker N-11 via Glutaryl),S. aureus MMC99 6 h,S. aureus (ATCC 12600); 6 h,>100 µg/mL
same,S. aureus MMC99 24 h,S. aureus (ATCC 12600); 24 h,>100 µg/mL
same,S. aureus MMC99 2 h,"S. aureus (ATCC 12600); lowest concentration killing 99% of inoculum, 2 h, two-fold dilutions 100-1.6 μg/mL",>100 µg/mL
same,"active concentrations against E. coli (MMC99, text)",[1],≥ 100 µg/mL
same,E. coli MMC99 2 h,"[1]; 37 °C, 2 h, median, n = 3",>100 µg/mL
same,E. coli MMC99 6 h,"[1]; 37 °C, 6 h, median, n = 3",>100 µg/mL
same,E. coli MMC99 24 h,"[1]; 37 °C, 24 h, median, n = 3",100 µg/mL
same,S. aureus MIC,S. aureus,>512 µg/mL
same,C. albicans MIC,C. albicans,>512 µg/mL
same,"cytotoxicity, cell viability HepG2",[2],at the highest tested concentration seems to have cytotoxic properties
same,"membrane potential, DiSC(3)5 fluorescence, 10 min","E. coli CCUG31246; 1× MIC of peptide, polymyxin B 10 μg/mL, 10 min",no effect on the membrane potential
same,"membrane potential, DiSC(3)5 fluorescence, 60 min","E. coli CCUG31246; 1× MIC, 60 min",partial depolarization
